The values below come from publication PMC5681660, “Reduced hepatitis B and D viral entry using clinically applied drugs as novel inhibitors of the bile acid transporter NTCP” (Scientific Reports, 2017).

The target of assay [1] is T1, human NTCP (Homo sapiens, UniProt Q14973).
T1 sequence (Q14973 1-349): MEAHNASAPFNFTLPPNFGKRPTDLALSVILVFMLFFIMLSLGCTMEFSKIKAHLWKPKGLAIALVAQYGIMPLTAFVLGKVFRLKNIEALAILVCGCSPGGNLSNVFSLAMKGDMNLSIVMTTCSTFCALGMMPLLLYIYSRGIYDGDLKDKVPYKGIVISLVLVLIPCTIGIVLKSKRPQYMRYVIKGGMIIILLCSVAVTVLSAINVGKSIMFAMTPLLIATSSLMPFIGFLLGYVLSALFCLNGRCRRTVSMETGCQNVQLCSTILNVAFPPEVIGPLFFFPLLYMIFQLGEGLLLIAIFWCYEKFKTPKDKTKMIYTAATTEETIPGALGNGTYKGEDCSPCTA
Nature of the assay: Screening taurocholate uptake assay (96-well, [14C]taurocholate, 10 µM drug).

Assay [2] has as its target T1, human NTCP. Nature of the assay: Screening fluorescent competitive Myrcludex B-FITC binding assay (96-well, 10 µM drug).
Where [3] appears, read: combined ranking from functional and binding screening assays.
The mark [4] stands for this setting: screen, 10 µM drug, taurocholate uptake.
[5] abbreviates: screen, 10 µM drug, Myrcludex B-FITC binding.
[6] abbreviates: Prestwick library screen, 10 µM drug, B-score of taurocholate uptake.
[7] abbreviates: combined ranking from functional and binding assay B-scores.
The mark [8] stands for this setting: Prestwick library screen, 10 µM drug, B-score of Myrcludex B-FITC binding.

SMILES strings stand for the structures. Counter-ions that a name gives are not always drawn. Like-named read-outs stand apart in the source and are kept apart here. Starred links: 1 amine or outer side, 2 acyl side, 3 side chain; linkers in the order of their positions; H or OH if unused. Positions of bridges follow the written chain, without caps; N, C: chain ends. Non-standard residues stand in square brackets, D forms with d. Residues, ends and D or L forms follow the SMILES beside them. *: point of attachment. X1 = NC1=N[C@@H]([C@H](N[*:1])C(=O)[*:2])C[C@H](O)N1; ΔAla(Z-3-ureido) = NC(=O)N/C=C(\N)C(=O)O; β3hOrn = NCCC[C@H](N)CC(=O)*; Dap = NC[C@H](N)C(=O)O

Turning to `CCC1=C(C)CN(C(=O)NCCc2ccc(S(=O)(=O)NC(=O)N[C@H]3CC[C@H](C)CC3)cc2)C1=O` [Glimepiride], the Ranking score in assay [1] (setting [3]) turned out to be 350.338. The B-score functional assay in assay [1] (setting [4]) was -1.888. In assay [2] (setting [5]), the B-score binding assay came to 0.412.
Turning to `Cc1cccc(C)c1NC(=O)C(C)N` (stereo not drawn) [Tocainide hydrochloride], the B-score functional assay in assay [1] (setting [6]) was 1.054. For the same molecule, in assay [1] (setting [7]), the Ranking score turned out to be 1036.23. In assay [2] (setting [8]), this molecule had a B-score binding assay of 0.83.
With `CNCCCC12CCC(c3ccccc31)c1ccccc12` [Maprotiline hydrochloride], the Ranking score in assay [1] (setting [3]) amounted to 403.36. The same molecule returned a B-score functional assay in assay [1] (setting [4]) of -0.051. The same molecule gave a B-score binding assay in assay [2] (setting [5]) of -0.835.
On the same counts, the results for `COc1cc([S+](C)[O-])ccc1-c1nc2ncccc2[nH]1` (stereo not drawn) [Sulmazole] are 402.209, 0.016 and -0.978.
As to `CC(=O)c1ccc(S(=O)(=O)NC(=O)NC2CCCCC2)cc1` [Acetohexamide], the B-score functional assay in assay [1] (setting [6]) is 0.057. In addition, the Ranking score in assay [1] (setting [7]) stood at 875.07. The same molecule gave a B-score binding assay in assay [2] (setting [8]) of 1.192.
`NCCCC(O)(P(=O)(O)O)P(=O)(O)O` [Alendronate sodium]: in assay [1] (setting [3]), the Ranking score is 453.598. In addition, the B-score functional assay in assay [1] (setting [4]) is 0.279. Besides, the B-score binding assay in assay [2] (setting [5]) was -0.968.
`Cn1c(=O)c2c(ncn2CC(=O)O)n(C)c1=O` [Acefylline] registered a B-score functional assay in assay [1] (setting [6]) of 0.41. The Ranking score in assay [1] (setting [7]) came out at 910.022. The same molecule returned a B-score binding assay in assay [2] (setting [8]) of 0.607.
In the case of `CN(C)CCOC(=O)COc1ccc(Cl)cc1.Cl` [Meclofenoxate hydrochloride], in assay [1] (setting [3]), the Ranking score is given as 355.4. Besides, the B-score functional assay in assay [1] (setting [4]) is listed as -0.036. Moreover, the B-score binding assay in assay [2] (setting [5]) is given as -1.168.
Regarding `CCOc1ccc(Cc2nccc3cc(OCC)c(OCC)cc23)cc1OCC` [Ethaverine hydrochloride], the B-score functional assay in assay [1] (setting [6]) is 0.024. Besides, the Ranking score in assay [1] (setting [7]) turned out to be 885.91. In assay [2] (setting [8]), the B-score binding assay is 1.651.
As for `O=C1O[C@H]([C@@H](O)CO)C(O)=C1O` [Ascorbic acid], the Ranking score in assay [1] (setting [3]) was determined as 365.334. In assay [1] (setting [4]), this molecule came in with a B-score functional assay of -1.672. This molecule also displayed a B-score binding assay in assay [2] (setting [5]) of 0.271.
In turn, `NCCC[C@H](N)CC(=O)N[C@H]1CNC(=O)[C@H]([C@H]2C[C@H](O)NC(N)=N2)NC(=O)/C(=C/NC(N)=O)NC(=O)[C@H](CO)NC(=O)[C@H](CO)NC1=O.O=S(=O)(O)O` [Viomycin sulfate] (β3hOrn-[Dap]SS[ΔAla(Z-3-ureido)][X1]; lactam 1-C) had a B-score functional assay in assay [1] (setting [6]) of 0.436. Besides, the Ranking score in assay [1] (setting [7]) was found to be 846.67. In addition, the B-score binding assay in assay [2] (setting [8]) was found to be 0.234.
In assay [1], `CC1COc2c(N3CCN(C)CC3)c(F)cc3c(=O)c(C(=O)O)cn1c23` (stereo not drawn) [Ofloxacin] displayed a B-score functional assay of 1.32 and a Ranking score of 1023.33. This molecule showed a B-score binding assay in assay [2] of 0.588.
On to `Cc1cc2c(s1)Nc1ccccc1N=C2N1CCN(C)CC1` [Olanzapine], for which, in assay [1] (setting [6]), the B-score functional assay is on record as 0.458. For the same molecule, in assay [1] (setting [7]), the Ranking score turned out to be 1041.63. Further, the B-score binding assay in assay [2] (setting [8]) came to 2.253.
For the molecule `C[C@H]1O[C@@H](O[C@H]2[C@@H](O)C[C@H](O[C@H]3[C@@H](O)C[C@H](O[C@H]4CC[C@@]5(C)[C@H](CC[C@@H]6[C@@H]5C[C@@H](O)[C@]5(C)[C@@H](C7=CC(=O)OC7)CC[C@]65O)C4)O[C@@H]3C)O[C@@H]2C)C[C@H](O)[C@@H]1O` [Digoxin], the Ranking score in assay [1] (setting [3]) is 426.002. The B-score functional assay in assay [1] (setting [4]) was -1.822. In assay [2] (setting [5]), this molecule had a B-score binding assay of 2.8.
In the same order, the values of `Nc1ncnc2c1ncn2[C@@H]1O[C@H](CO)[C@@H](O)[C@@H]1O` [Vidarabine] are 319.086, -2.606 and 1.523.
For the molecule `O=S(=O)(O)c1cc(O)ccc1O` [Ethamsylate], the B-score functional assay in assay [1] (setting [6]) was found to be 0.032. In addition, the Ranking score in assay [1] (setting [7]) stood at 873.696. This molecule also showed a B-score binding assay in assay [2] (setting [8]) of 1.4.
